Assay results from patent publication US20260130933A1, “PHARMACEUTICAL COMPOSITION FOR PREVENTION OR TREATMENT OF NEPHROPATHY AND/OR DIABETES MELLITUS, COMPRISING ENAVOGLIFLOZIN” (DAEWOONG PHARMACEUTICAL CO., LTD., priority 2022, published 2026).

Experiment: Example 2: phase 3 trial, enavogliflozin 0.3 mg vs dapagliflozin 10 mg once a day for 24 weeks added to metformin in patients with type 2 diabetes (same efficacy, exploratory and safety endpoints)
Assay type: in vivo, human
Description: Subjects who met the inclusion/exclusion criteria were administered a placebo of the clinical trial drug under single-blind (subject blinding) conditions during a 2-week run-in period while continuing to receive metformin. […] The randomized subjects were administered two tablets of the clinical trial drug for each administration group once a day, and then visited the institution at weeks 6, 12, 18, and 24 during the 24-week administration period to conduct efficacy and safety evaluations.
• 1. Change in HbA1c at week 24 after administration of clinical trial drug compared to Visit 2 (randomization)
• 1. Change in HbA1c at each time point of weeks 6, 12, and 18 after administration of clinical trial drug compared to Visit 2 (randomization) • 2. Change in FPG at each time point of weeks 6, 12, 18, and 24 after administration of clinical trial drug compared to Visit 2 (randomization) • 3. Proportion of subjects achieving HbA1c<7% at each time point of weeks 6, 12, 18, and 24 after administration of clinical trial drug • 4. Proportion of subjects achieving HbA1c<6.5% at each time point of weeks 6, 12, 18, and 24 after administration of clinical trial drug • 5. Proportion of subjects achieving therapeutic response (HbA1c change (HbA1c at Visit 2-HbA1c at each evaluation time point)>0.5% or HbA1c<7% at each evaluation time point compared to Visit 2 (randomization)) at each time point of weeks 6, 12, 18 and 24 after administration of clinical trial drug
• 1. Change in fasting c-peptide at each time point of weeks 6, 12, 18, and 24 after administration of clinical trial drug compared to Visit 2 (randomization) • 2. Change in body weight at each time point of weeks 6, 12, 18, and 24 after administration of clinical trial drug compared to Visit 2 (randomization) • 3. Change in fasting lipid concentration (total cholesterol, LDL-C, HDL-C, and triglycerides) at each time point of weeks 6, 12, 18, and 24 after administration of clinical trial drug compared to Visit 2 (randomization) • 4. Changes in systolic or diastolic blood pressure at each time point of weeks 6, 12, 18, and 24 after administration of clinical trial drug compared to Visit 2 (randomization) • 5. Changes in β-cell function and insulin resistance measured by HOMA-β and HOMA-IR at each time point of weeks 6, 12, 18, and 24 after administration of clinical trial drug compared to Visit 2 (randomization) • 6. Changes in renal function-related indicators (UACR, UGCR) measured by UACR at each time point of weeks 6, 12, 18, and 24 after administration of clinical trial drug compared to Visit 2 (randomization) • 7. Changes in obesity-related indicators (adiponectin, leptin) at each time point of weeks 6, 12, 18, and 24 after administration of clinical trial drug compared to Visit 2 (randomization)

[1] = Week 18, mPPS1, enavogliflozin minus dapagliflozin
[2] = Week 18, mPPS2, enavogliflozin minus dapagliflozin
[3] = Week 24, PPS, enavogliflozin minus dapagliflozin

## OC[C@H]1O[C@@H](c2cc(Cc3ccc(C4CC4)cc3)c(Cl)c3c2CCO3)[C@H](O)[C@@H](O)[C@@H]1O [Enavogliflozin, (2S,3R,4R,5S,6R)-2-(7-chloro-6 (4-cyclopropylbenzyl)-2,3-dihydrobenzofuran-4-yl)-6-(hydroxymethyl)tetrahydro-2H-pyran-3,4,5-triol]
Week 18, mPPS1
  LDL-C, Mean (SD): 85.75(29.78) mg/dL
  LDL-C, Median: 77.50 mg/dL
  Triglycerides change from baseline, ANCOVA LS mean (SE): −4.99(5.99) mg/dL
  Triglycerides change from baseline, Mean (SD): −2.70(78.86) mg/dL
  Triglycerides change from baseline, Median: -2.50 mg/dL
  Triglycerides, Mean (SD): 118.10(55.93) mg/dL
  Triglycerides, Median: 108.00 mg/dL
[1]
  HDL-C change from baseline, LS mean difference: -0.62 mg/dL
  LDL-C change from baseline, LS mean difference: -1.15 mg/dL
  triglycerides change from baseline, LS mean difference: -6.87 mg/dL
Week 18, mPPS2
  Diastolic blood pressure change from baseline, ANCOVA LS mean (SE): −4.80 mmHg
  Diastolic blood pressure change from baseline, Mean (SD): −5.05 mmHg
  Diastolic blood pressure change from baseline, Median: −5.00 mmHg
  Diastolic blood pressure, Mean (SD): 71.85 mmHg
  Diastolic blood pressure, Median: 71.00 mmHg
  Systolic blood pressure change from baseline, ANCOVA LS mean (SE): −6.69(1.12) mmHg
  Systolic blood pressure change from baseline, Mean (SD): −7.04(10.51) mmHg
  Systolic blood pressure change from baseline, Median: −9.00 mmHg
  Systolic blood pressure, Mean (SD): 122.70(12.89) mmHg
  Systolic blood pressure, Median: 122.00 mmHg
[2]
  diastolic blood pressure change from baseline, LS mean difference: −0.70 mmHg
  systolic blood pressure change from baseline, LS mean difference: −0.72 mmHg
Week 24, PPS
  Adiponectin change from baseline, ANCOVA LS mean (SE): 1.67 µg/mL
  Adiponectin change from baseline, Mean (SD): 1.72 µg/mL
  Adiponectin change from baseline, Median: 1.21 µg/mL
  Adiponectin, Mean (SD): 8.68 µg/mL
  Adiponectin, Median: 7.64 µg/mL
  HOMA-IR change from baseline, ANCOVA LS mean (SE): −1.85
  HOMA-IR change from baseline, Mean (SD): −1.69
  HOMA-IR change from baseline, Median: −1.06
  HOMA-IR, Mean (SD): 1.76
  HOMA-IR, Median: 1.48
  HOMA-β change from baseline, ANCOVA LS mean (SE): 6.94
  HOMA-β change from baseline, Mean (SD): 6.80
  HOMA-β change from baseline, Median: 4.00
  HOMA-β, Mean (SD): 52.32
  HOMA-β, Median: 42.00
  Leptin change from baseline, ANCOVA LS mean (SE): -2.40 ng/mL
  Leptin change from baseline, Mean (SD): -2.53 ng/mL
  Leptin change from baseline, Median: -1.77 ng/mL
  Leptin, Mean (SD): 9.68 ng/mL
  Leptin, Median: 7.45 ng/mL
  UACR change from baseline, ANCOVA LS mean (SE): -24.29 g/kg
  UACR change from baseline, Mean (SD): -18270 mg/kg
  UACR change from baseline, Median: -1.10 g/kg
  UACR, Mean (SD): 19930 mg/kg
  UACR, Median: 10.20 g/kg
  UGCR change from baseline, ANCOVA LS mean (SE): 60.48 mg/mg
  UGCR change from baseline, Mean (SD): 58.90 mg/mg
  UGCR change from baseline, Median: 56.43 mg/mg
  UGCR, Mean (SD): 60.43 mg/mg
  UGCR, Median: 57.88 mg/mg
[3]
  HOMA-IR change from baseline, LS mean difference: −0.53
  HOMA-β change from baseline, LS mean difference: −4.99
  UACR change from baseline, LS mean difference: -6.93 g/kg
  UGCR change from baseline, LS mean difference: 15.54 mg/mg
  leptin change from baseline, LS mean difference: -1.12 ng/mL
Week 24, mPPS1
  HDL-C change from baseline, ANCOVA LS mean (SE): 3.06(0.64) mg/dL
  HDL-C change from baseline, Mean (SD): 2.75(6.70) mg/dL
  HDL-C change from baseline, Median: 3.00 mg/dL
  HDL-C, Mean (SD): 53.69(10.72) mg/dL
  HDL-C, Median: 53.00 mg/dL
  LDL-C change from baseline, ANCOVA LS mean (SE): 1.64(1.92) mg/dL
  LDL-C change from baseline, Mean (SD): 0.88(17.04) mg/dL
  LDL-C change from baseline, Median: 3.00 mg/dL
  LDL-C, Mean (SD): 87.40(29.52) mg/dL
  LDL-C, Median: 84.00 mg/dL
  Triglycerides change from baseline, ANCOVA LS mean (SE): −5.07(5.14) mg/dL
  Triglycerides change from baseline, Mean (SD): −2.47(76.88) mg/dL
  Triglycerides change from baseline, Median: 0.00 mg/dL
